# ChEMBL document CHEMBL4184208, “Theoretical research in structure characteristics of different inhibitors and differences of binding modes with CBP bromodomain” (Bioorg Med Chem, 2018)
# Target: CREB-binding protein/Histone acetyltransferase p300 (Homo sapiens, UniProt Q09472+Q92793)
# Assay: Inhibition of human His-FLAG tagged CBP/EP300 (1082 to 1197 residues) using H4-TetraAc-biotin peptide as substrate after 90 mins by AlphaLISA method
# Assay type: protein assay
row,IC50,SMILES
1,14 µM,C[C@@H]1CC(=O)Nc2ccccc2N1
2,0.47 µM,C[C@@H]1CC(=O)Nc2cccc(-c3cnn(C(C)(C)C)c3)c2N1
